“Also recorded” adds a separate entry of the source.
How the values were obtained:
mouse LSCs = experiment: RNA-seq of LSCs after ILC1 co-culture or IFN-γ treatment; format: cell-based; conditions: vs untreated LSCs
Method: For mouse ILC1 RNA-sequencing, mouse ILC1s were sorted from the liver of normal mice or mice with AML using BD FACSAria™ Fusion. […] Total RNA was isolated from ILC1s or LSCs using a miRNeasy mini kit (QIAGEN). PolyA RNA-seq was performed in the Integrative Genomics Core of City of Hope National Medical Center. SMART-Seq® Ultra Low Input RNA Kit for Sequencing-v4 (Takara Bio) was used for getting double-strand cDNA from each sample with 2 ng of input total RNA. The resulting cDNA was sheared using a Covaris LE220 sonicator. The sheared DNA was used for to prepare a sequencing library, using a KAPA HyperPrep Kit. The final libraries were quantified using the Qubit Assay Kit (Thermo Fisher Scientific) and Bioanalyzer (Agilent). Sequencing was performed using the single-read mode of 51 cycles of read1 and 7 cycles of index read with V4 reagents on a Hiseq 2500 system (Illumina). Real-time analysis (RTA) 2.2.38 software was used to process the image analysis and base calling.
2,000 mouse LSCs were co-cultured with 1,000 ILC1s or treated with 1 ng/ml IFN-γ for 3 days, and then the LSCs were sorted using BD FACSAria Fusion. Total RNA of LSCs were isolated using miRNeasy mini kit (QIAGEN). SMART-Seq® Ultra Low Input RNA Kit for Sequencing-v4 was used for generating amplified double strand cDNA from each sample with 2 ng of input total RNA according to the manufacturer's protocol. The resulting double-stranded cDNA sheared with Covaris LE220 with the setting of DNA fragment size of 200 bp peak. The sheared DNA was used for sequencing library preparation by using KAPA HyperPrep Kits. The final libraries were quantified with qubit and bioanalyzer. The sequencing was performed with the single read mode of 51 cycles of read1 and 7 cycles of index read with V4 reagents on Hiseq2500. Real-time analysis (RTA) 2.2.38 software was used to process the image analysis and base calling.
Prism software v.8 (GraphPad, CA, USA) was used to perform statistical analysis. Two group comparisons were performed with a two-tailed Student's t-test; multiple group comparisons were performed with a one-way ANOVA test with a multiple comparisons option. For Kaplan-Meier survival curve analysis, the comparisons were performed using a log-rank (Mantel-Cox) test. For continuous endpoints, Student's t test was used to compare two independent conditions, and one-way ANOVA models were used to compare three or more independent conditions. For repeated measures over time, linear mixed models were used to account for the variance and covariance structure. Mouse survival was estimated by the Kaplan-Meier method and compared by log-rank tests. All tests were two-sided. P values were adjusted for multiple comparisons by Holm's procedure. For RNA-seq analysis, sequencing reads were trimmed from sequencing adapters using Trimmomatic^74 and polyA tails using FASTPT^75, and then mapped back to the mouse genome (mm10) using STAR (v. 020201)^76. The gene-level count table was created by HTSeq (v.0.6.0)^77 and normalized by the TMM^78 method. General linear models based on negative binomial distributions (R package “EdgeR”) were used to compare gene expression levels between two specific cell types. […] Pathway and gene set enrichment analyses were performed using the GSEA^79,80 program, which runs the GSEAPreranked algorithm on a ranked list of genes. Data are presented as mean±SD. Prism software v.8 (GraphPad, CA, USA) and SAS v.9.4 (SAS Institute. NC, USA) were used to perform statistical analyses. The p-values are represented as: *<0.05, **<0.01, ***<0.001, and ****<0.0001

[1] = tested on: mouse LSCs (Lin^−Sca-1^+c-Kit^+); experiment: LSCs and ILC1s in vitro co-culture assay (LSC apoptosis), mouse; format: cell-based; conditions: recombinant murine cytokine instead of ILC1s, indicated doses, 3-4 days
Method: A total of 2,000 LSCs from AML patients labeled with CTV were co-cultured with different numbers of human ILC1s supplemented with human IL-12 (10 ng/ml) and IL-15 (100 ng/ml). After 3 days of co-culture, cells were harvested and analyzed by flow cytometry. 7-AAD was used to identify dead cells. For mouse LSCs co-culture assay, 2,000 LSCs from Mll^PTD/WT/Flt3^ITD/ITD mice labeled with CTV were co-cultured with different numbers of mouse ILC1s supplemented with mouse IL-12 (10 ng/ml) and IL-15 (100 ng/ml). After 3 days of co-culture, cells were harvested and analyzed by flow cytometry. 7-AAD was used to identify the dead cells. For the co-culture of LSCs and ILC1s using the transwell co-culture system, 2,000 human or mouse LSCs were seeded in the lower chamber while different numbers of human or mouse ILC1s were seeded in the upper chamber. After 3 days, cells were harvested and analyzed by flow cytometry. 7-AAD was used to identify the dead cells. For co-culture assay with cytokines and antibodies, 2,000 human or mouse LSCs were co-cultured with different doses of human or mouse TNF-α, IFN-γ, anti-TNF-α (10 μg/ml) Ab, or anti-IFN-γ Ab (10 μg/ml). Three days after the co-culture, cells were harvested and analyzed by flow cytometry. 7-AAD was used to identify the dead cells.
For human LSC co-culture assays, LSCs from patients with AML were labeled with […] CTV and co-cultured in the presence of human IL-12 (10 ng/ml) and IL-15 (100 ng/ml) with various numbers of ILC1s isolated from peripheral blood of healthy donors or patients with AML. […] For all co-culture assays, cells were harvested after 3 days and analyzed using flow cytometry. […]
ILC1s were co-cultured with LSCs at a ratio of 1:1 or 1:2 for 6 h. […] Plates were then shaken at 300 rpm for 1 min, incubated for 60 min at room temperature, and then read on a luminometer (Promega, Glomax). Background luminescence was determined with 100 μl of culture medium without cells and subtracted before fold changes were calculated.

[2] = tested on: LS^−K^+ leukemia progenitor cells; experiment: Differentiation of sorted leukemia progenitor cells into myeloid blasts; format: cell-based, mouse; conditions: treated 5 days, among the groups
Method: The process of LSC differentiation into AML blasts includes transitions from LSCs to LS^−K^+ leukemia progenitor cells, and from LS^−K^+ leukemia progenitor cells to AML blasts. To investigate which part of the process was affected by ILC1 and IFN-γ, LS^−K^+ leukemia progenitor cells were sorted from Mll^PTD/WT/Flt3^ITD/ITD AML mice, then the LS^−K^+ leukemia progenitor cells were treated with WT ILC1, ILC1s, or recombinant IFN-γ for 5 days. […] Thus, ILC1s block LSC differentiation into AML blasts, likely via a process involving by IFN-γ, during the transition from LSCs into LS^−K^+ leukemia progenitor cells, upstream of progenitor cell differentiation into AML blasts (FIG. 9D).
LSCs transition into LS^−K^+ leukemia progenitor cells before becoming AML blasts.

Substance: recombinant murine IFN-γ: animal-free recombinant murine IFN-γ cytokine
- E2F targets, G2M checkpoints, MYC targets and mitotic spindle pathways in LSCs (GSEA) (mouse LSCs): significant suppression; also recorded: significantly suppressing
- JAK-STAT and PI3K-AKT signaling pathways in LSCs (mouse LSCs): activation of the JAK-STAT and PI3K-AKT signaling pathways
- apoptotic pathways in LSCs (GSEA) (mouse LSCs): activated apoptotic pathways
- expression of Akt3, Jak2, Stat1/2, Irf1/2/7/8/9 and Socs1 in LSCs (mouse LSCs): increased expression
- expression of genes associated with lymphoid differentiation (Gimap4, Gpb4, Irf8, Irf1) (mouse LSCs): increased expression
- expression of genes associated with myeloid differentiation (S100a8/S100a9, Chil3, Serpinb1a, Slc28a2) (mouse LSCs): reduced their expression
- LSC apoptosis on treatment with recombinant cytokine [1]: We observed LSC apoptosis with IFN-γ
- LSC apoptosis on treatment with recombinant cytokine ([1]; listed as IFN-γ): induces apoptosis of LSCs
- LSC apoptosis on treatment with recombinant cytokine ([1]; listed as Recombinant murine IFN-γ): induced LSC apoptosis
- percentage of Mac-1^+ and Gr-1^+ cells from LS^−K^+ leukemia progenitor cells [2]: do not affect the differentiation of leukemia progenitor cells into myeloid blasts
- percentage of Mac-1^+ and Gr-1^+ cells from LS^−K^+ leukemia progenitor cells ([2]; listed as recombinant IFN-γ): no statistical difference; also recorded: remained constant
